# From PMC8235719, “New RAD51 Inhibitors to Target Homologous Recombination in Human Cells” (Genes, 2021)
# “Also recorded” adds a separate entry of the source.
# How the values were obtained:
# MCF 10A cells = experiment: Cell viability assay (Guava ViaCount flow cytometry), MCF 10A; type: cell-based, human
# Experimental: For all cell viability experiments, except experiments involving MMS treatment, cells were seeded into the media containing indicated concentrations of tested compounds or corresponding amounts of DMSO in controls. The concentration of DMSO in media was 0.1%. MDA-MB-231 cells were seeded into 24-well plates at 3.5 × 10^4 cells/well for cells for a 4-day treatment or at 5000 cells/well for a 10-day treatment. MCF 10A cells were seeded into 24-well plates at 1.5 × 10^4 cells/well for a 4-day treatment or at 500 cells/well for a 10-day treatment. In the case of 10-day treatments, the media with compounds were renewed twice on the 4th and the 7th days of treatments. After completion of the treatments, cells were harvested, and their viability was determined by flow cytometry with Guava ViaCount reagent (Luminex; Austin, TX USA). Data were analyzed using the Guava ViaCount software (Millipore; Burlington, VT, USA). The IC50 values were calculated using the GraphPad Prism 5 software (San Diego, CA, USA).
# [1] = system: RAD51 foci in U-2 OS IndDR-GFP cells; experiment: RAD51 foci formation (immunofluorescence); type: cell-based, human; details: 30 µM
# Experimental: U-2 OS IndDR-GFP cells were seeded into 8-well polystyrene vessel culture slides at 5 × 10^4 cells/well. The next day, cells were pretreated with B02-iso or 0.1% DMSO (for control cells) for 1 h, followed by the treatment with 5 µM cisplatin for 4 h or left untreated (for control cells). After 4 h of incubation, cells were placed on ice, washed with PBS buffer (twice, 5 min each), pretreated with 0.5% Triton X-100 for 5 min, washed with PBS (twice, 5 min each). Cells were removed from ice and fixed with 4% methanol-free formaldehyde (Pierce; Waltham, […], USA) in PBS for 10 min. Cells were washed with PBS (twice, 5 min each), placed on ice, and permeabilized with 1% Triton X-100 in PBS for 10 min. Cells were removed from ice, washed with PBS (once, 5 min), blocked with a blocking buffer (5% BSA (Bovine Serum Albumin) in PBS) for 30 min, and incubated with rabbit polyclonal RAD51 antibody (1:1000, GeneTex, GTX100469) and mouse monoclonal anti-phospho-histone H2A.X (Ser 139) antibody (1:20,000, clone JBW301, Millipore 05-636) in blocking buffer, containing 0.3% Triton X-100 overnight at 4 °C. […] For foci quantification, 50 cells were chosen for each treatment condition at random, and foci number was counted using ImageJ software. […]
# [2] = system: RAD51 expression in U-2 OS IndDR-GFP cells; experiment: RAD51 expression level by Western blotting; type: cell-based, human; details: 4 µM, 24 h
# Experimental: Protein concentrations in the nuclear and whole-cell extracts were determined by Bradford assay (Bio-Rad), and the equivalent protein amounts were subjected to electrophoresis in 12% SDS-Polyacrylamide gels (29:1) in Tris-Glycine-SDS buffer. After gel-electrophoresis, proteins were transferred to PVDF membranes (Amersham, Piscataway, NJ, USA) using Mini Trans-Blot Cell (BioRad, Hercules, CA, USA) at 80V for 40 min. PVDF membranes were washed in TBS and blocked with a blocking buffer (5% nonfat dry milk in TBS-T) for 1 h. Anti-RAD51 rabbit polyclonal antibody (1:1000, GeneTex, GTX100469), anti-FKBP12 monoclonal mouse antibody (1:100, BD Biosciences; Franklin lakes, NJ, USA, 610808) for the detection of ddSceGR, and anti-nucleolin mouse monoclonal antibody (1:1000, Santa Cruz Biotechnology; Dallas, Texas, sc-17826) were applied overnight in a blocking buffer at 4 °C. […] Signal was detected with SuperSignal West Pico Plus chemiluminescent substrate (Thermo Scientific; Waltham, […], USA) with a G:B0X6 imaging system (Syngene; Bangalore, India). Band intensities were quantified with the GeneTools software (Syngene; Bangalore, India).
# IndDR-GFP cells. […] 10 µg of protein lysates were loaded and analyzed by SDS-PAGE. […]
# [3] = system: HR in human U-2 OS IndDR-GFP cells; experiment: Inducible I-SceI DR-GFP assay (IndDR-GFP), inhibition of HR; type: cell-based
# Experimental: Exponentially growing U-2 OS IndDR-GFP cells were seeded at a density of 2 × 10^5 cells/well into 6-well plates with DMEM media containing 80 µg/mL G418 and indicated concentrations of RAD51i(s). For I-SceI induced samples, the media were supplemented with 0.5 µM Shield1 (Clontech, Mountain View, CA, USA) with 100 nM triamcinolone acetonide (Sigma, St. Louis, MO, USA). After 24 h of incubation, the media were removed, cells were washed with the DMEM, and the incubation continued for 48 h in DMEM containing 100 units/mL penicillin, 100 µg/mL streptomycin, and 80 µg/mL G418. Then, cells were trypsinized, trypsin solution was neutralized with an equal volume of media, and 10% formaldehyde solution in PBS was added for fixation to reach a final concentration of formaldehyde of 3.3%. The yield of GFP-positive cells indicative of HR activity was measured by flow cytometry with the Guava easyCyte system, and the data were analyzed with the InCyte program (Millipore; Burlington, VT, USA).
smiles,measurement,setting,value
O=c1nc(/C=C/c2cccnc2)n(Cc2ccccc2)c2ccccc12 [B02-iso],Times lower sensitivity of MCF 10A compared with MDA-MB-231,"MCF 10A cells; 4-day treatment, ratio of IC50",approximately 3
same,IC50,"MCF 10A cells; Homo sapiens, 96 h, MCF 10A, 4-day treatment",11.9 µM
same,Effect on cell viability in combination with olaparib,"MCF 10A cells; MCF 10A, 1.8 µM B02-iso, same range of olaparib concentrations, 10-day treatment",did not decrease cell viability
same,"RAD51 foci formation, compound alone","[1]; 1 h, no cisplatin",did not significantly affect RAD51 foci formation
same,RAD51 foci formation induced by cisplatin,"[1]; 1 h pretreatment, then 5 µM cisplatin 4 h",almost completely eliminated RAD51 foci formation
same,RAD51 expression level,[2],does not change the RAD51 expression level; also recorded: did not change RAD51 expression level
same,IC50,"[3]; Homo sapiens, U2OS, U-2 OS IndDR-GFP cells, 24 h with compound, ± SD, read-out: IC50, efficiency of HR inhibition in IndDR-GFP assay",4.3 ± 0.75 µM
same,Improvement of potency (HR inhibition) versus B02,[3]; IndDR-GFP IC50 of B02-iso vs B02,approximately four-fold
